What was measured:
Type in all cases: in vivo
[1] = system: IPOHE, Morningglory, Ivyleaf, Ipomoea hederacea, (L)Jacq.; experiment: Preemergence herbicidal evaluation (Example 148); settings: rating scale 0-9, two to four weeks after treatment
Description: (§1) The scale is based upon a visual observation of plant stand, vigor, malformation, size, chlorosis and overall plant appearance as compared with a control.
(§2) The herbicidal activity of the compounds of the present invention was evaluated by the following tests wherein the seeds of a variety of monocotyledonous and dicotyledonous plants were separately mixed with potting soil and planted on top of approximately one inch of soil in separate pint cups. After planting, the cups were sprayed with the selected aqueous acetone solution containing test compound in sufficient quantity to provide the equivalent of about 0.125 to 0.250 kg per hectare of test compound per cup. The treated cups were then placed on greenhouse benches, watered and cared for in accordance with conventional greenhouse procedures. From two to four weeks after treatment, the tests were terminated and each cup was examined and rated according to the rating system provided in Example 94. When more than one test was performed for a given compound, the data were averaged.

[2] = system: TRZAW, Winter wheat, Tritium Aestivum, L. (Winter); experiment: Preemergence herbicidal evaluation (Example 148); settings: rating scale 0-9, two to four weeks after treatment
Description: as §1, §2

[3] = system: DIGSA, Crabgrass, (Hairy) L, Digitaria sanguinalis, (L)Scop; experiment: Preemergence herbicidal evaluation (Example 148); settings: rating scale 0-9, two to four weeks after treatment
Description: as §1, §2

[4] = system: ZEAMX, Field corn, Zea mays L.; experiment: Preemergence herbicidal evaluation (Example 148); settings: rating scale 0-9, two to four weeks after treatment
Description: as §1, §2

[5] = system: ABUTH, Velvetleaf, Abutilon theophrasti, Medic.; experiment: Preemergence herbicidal evaluation (Example 148); settings: rating scale 0-9, two to four weeks after treatment
Description: as §1, §2

[6] = system: SETVI, Green foxtail, Setaria viridis, (L.)Beau; experiment: Preemergence herbicidal evaluation (Example 148); settings: rating scale 0-9, two to four weeks after treatment
Description: as §1, §2

[7] = system: GLXMA, Soybean, Glycine max, (L.) Merr.; experiment: Preemergence herbicidal evaluation (Example 148); settings: rating scale 0-9, two to four weeks after treatment
Description: as §1, §2

[8] = system: ECHCG, Barnyardgrass, Echinochloa crusgalli, (L.)Beau; experiment: Preemergence herbicidal evaluation (Example 148); settings: rating scale 0-9, two to four weeks after treatment
Description: as §1, §2

[9] = system: AMBEL, Ragweed, Common, Ambrosia artemiisifolia, L.; experiment: Preemergence herbicidal evaluation (Example 148); settings: rating scale 0-9, two to four weeks after treatment
Description: as §1, §2

[10] = system: ALOMY, Blackgrass, Alopecurus myosuroides; experiment: Preemergence herbicidal evaluation (Example 148); settings: rating scale 0-9, two to four weeks after treatment
Description: as §1, §2

[11] = system: CHEAL, Lambsquarters, Chenopodium album, L. Common; experiment: Preemergence herbicidal evaluation (Example 148); settings: rating scale 0-9, two to four weeks after treatment
Description: as §1, §2

[12] = system: IPOHE, Morningglory, Ivyleaf, Ipomoea hederacea, (L)Jacq.; experiment: Postemergence herbicidal evaluation (Example 147); settings: rating scale 0-9, two to three weeks after treatment
Description: (§3) Seedling plants were grown in jiffy flats for about two weeks. The test compounds were dispersed in 80/20 acetone/water mixtures containing 1.0% SUN-IT®II, a methylated seed oil, in sufficient quantities to provide the equivalent of about 0.016 to 0.032 kg per hectare of active compound when applied to the plants through a spray nozzle operating at 40 psi for a predetermined time. After spraying, the plants were placed on greenhouse benches and were cared for in accordance with conventional greenhouse procedures. Approximately two to three weeks after treatment, the seedling plants were examined and rated according to the rating scale (0-9) set forth below. Where more than one test is involved for a given compound, the data are averaged. [table] The scale is based upon a visual observation of plant stand, vigor, malformation, size, chlorosis and overall plant appearance as compared with a control. Plant species employed in these evaluations are reported by header abbreviation, common name and scientific name. [table]

[13] = system: TRZAW, Winter wheat, Tritium Aestivum, L. (Winter); experiment: Postemergence herbicidal evaluation (Example 147); settings: rating scale 0-9, two to three weeks after treatment
Description: as §3

[14] = system: DIGSA, Crabgrass, (Hairy) L, Digitaria sanguinalis, (L)Scop; experiment: Postemergence herbicidal evaluation (Example 147); settings: rating scale 0-9, two to three weeks after treatment
Description: as §3

[15] = system: ZEAMX, Field corn, Zea mays L.; experiment: Postemergence herbicidal evaluation (Example 147); settings: rating scale 0-9, two to three weeks after treatment
Description: as §3

[16] = system: ABUTH, Velvetleaf, Abutilon theophrasti, Medic.; experiment: Postemergence herbicidal evaluation (Example 147); settings: rating scale 0-9, two to three weeks after treatment
Description: as §3

[17] = system: SETVI, Green foxtail, Setaria viridis, (L.)Beau; experiment: Postemergence herbicidal evaluation (Example 147); settings: rating scale 0-9, two to three weeks after treatment
Description: as §3

[18] = system: GLXMA, Soybean, Glycine max, (L.) Merr.; experiment: Postemergence herbicidal evaluation (Example 147); settings: rating scale 0-9, two to three weeks after treatment
Description: as §3

[19] = system: ECHCG, Barnyardgrass, Echinochloa crusgalli, (L.)Beau; experiment: Postemergence herbicidal evaluation (Example 147); settings: rating scale 0-9, two to three weeks after treatment
Description: as §3

[20] = system: AMBEL, Ragweed, Common, Ambrosia artemiisifolia, L.; experiment: Postemergence herbicidal evaluation (Example 147); settings: rating scale 0-9, two to three weeks after treatment
Description: as §3

[21] = system: ALOMY, Blackgrass, Alopecurus myosuroides; experiment: Postemergence herbicidal evaluation (Example 147); settings: rating scale 0-9, two to three weeks after treatment
Description: as §3

[22] = system: CHEAL, Lambsquarters, Chenopodium album, L. Common; experiment: Postemergence herbicidal evaluation (Example 147); settings: rating scale 0-9, two to three weeks after treatment
Description: as §3

[23] = system: XANST, Cocklebur, Xanthium strumariam; experiment: Postemergence herbicidal evaluation (Example 147); settings: rating scale 0-9, two to three weeks after treatment
Description: as §3

Question: For `CCCNS(=O)(=O)NC(=O)c1cc(-n2c(=O)cc(C(F)(F)F)n(C)c2=O)c(F)cc1Cl` [Example 63], which “Preemergence herbicidal rating IPOHE” value ([1]; rate 0.125 kg/ha) is on record?
Answer: 9.0

Question: And the “Preemergence herbicidal rating IPOHE” value ([1]; rate 0.25 kg/ha)?
Answer: 9.0

Question: And the “Preemergence herbicidal rating TRZAW” value ([2]; rate 0.125 kg/ha)?
Answer: 0.0

Question: And the “Preemergence herbicidal rating TRZAW” value ([2]; rate 0.25 kg/ha)?
Answer: 0.0

Question: What about the “Preemergence herbicidal rating DIGSA” value ([3]; rate 0.125 kg/ha) of the same compound?
Answer: 3.0

Question: What about the “Preemergence herbicidal rating DIGSA” value ([3]; rate 0.25 kg/ha) of the same compound?
Answer: 8.0

Question: What about the “Preemergence herbicidal rating ZEAMX” value ([4]; rate 0.125 kg/ha) of the same compound?
Answer: 0.0

Question: What about the “Preemergence herbicidal rating ZEAMX” value ([4]; rate 0.25 kg/ha) of the same compound?
Answer: 0.0

Question: And the “Preemergence herbicidal rating ABUTH” value ([5]; rate 0.125 kg/ha)?
Answer: 9.0

Question: And the “Preemergence herbicidal rating ABUTH” value ([5]; rate 0.25 kg/ha)?
Answer: 9.0

Question: And the “Preemergence herbicidal rating SETVI” value ([6]; rate 0.125 kg/ha)?
Answer: 4.0

Question: What about the “Preemergence herbicidal rating SETVI” value ([6]; rate 0.25 kg/ha) of the same compound?
Answer: 8.0

Question: What about the “Preemergence herbicidal rating GLXMA” value ([7]; rate 0.125 kg/ha) of the same compound?
Answer: 1.0

Question: And the “Preemergence herbicidal rating GLXMA” value ([7]; rate 0.25 kg/ha)?
Answer: 5.0

Question: And the “Preemergence herbicidal rating ECHCG” value ([8]; rate 0.125 kg/ha)?
Answer: 4.0

Question: What about the “Preemergence herbicidal rating ECHCG” value ([8]; rate 0.25 kg/ha) of the same compound?
Answer: 9.0

Question: What about the “Preemergence herbicidal rating AMBEL” value ([9]; rate 0.125 kg/ha) of the same compound?
Answer: 9.0

Question: And the “Preemergence herbicidal rating AMBEL” value ([9]; rate 0.25 kg/ha)?
Answer: 9.0

Question: What about the “Preemergence herbicidal rating ALMOY” value ([10]; rate 0.125 kg/ha) of the same compound?
Answer: 0.0

Question: What about the “Preemergence herbicidal rating ALMOY” value ([10]; rate 0.25 kg/ha) of the same compound?
Answer: 0.0

Question: What about the “Preemergence herbicidal rating CHEAL” value ([11]; rate 0.125 kg/ha) of the same compound?
Answer: 9.0

Question: What about the “Preemergence herbicidal rating CHEAL” value ([11]; rate 0.25 kg/ha) of the same compound?
Answer: 9.0

Question: And the “Postemergence herbicidal rating IPOHE” value ([12]; rate 0.016 kg/ha)?
Answer: 9.0

Question: And the “Postemergence herbicidal rating IPOHE” value ([12]; rate 0.032 kg/ha)?
Answer: 9.0

Question: And the “Postemergence herbicidal rating TRZAW” value ([13]; rate 0.016 kg/ha)?
Answer: 6.0

Question: And the “Postemergence herbicidal rating TRZAW” value ([13]; rate 0.032 kg/ha)?
Answer: 7.0

Question: What about the “Postemergence herbicidal rating DIGSA” value ([14]; rate 0.016 kg/ha) of the same compound?
Answer: 4.0

Question: And the “Postemergence herbicidal rating DIGSA” value ([14]; rate 0.032 kg/ha)?
Answer: 4.0

Question: And the “Postemergence herbicidal rating ZEAMX” value ([15]; rate 0.016 kg/ha)?
Answer: 7.0

Question: What about the “Postemergence herbicidal rating ZEAMX” value ([15]; rate 0.032 kg/ha) of the same compound?
Answer: 8.0

Question: What about the “Postemergence herbicidal rating ABUTH” value ([16]; rate 0.016 kg/ha) of the same compound?
Answer: 9.0

Question: What about the “Postemergence herbicidal rating ABUTH” value ([16]; rate 0.032 kg/ha) of the same compound?
Answer: 9.0

Question: And the “Postemergence herbicidal rating SETVI” value ([17]; rate 0.016 kg/ha)?
Answer: 7.0

Question: What about the “Postemergence herbicidal rating SETVI” value ([17]; rate 0.032 kg/ha) of the same compound?
Answer: 9.0

Question: And the “Postemergence herbicidal rating GLXMA” value ([18]; rate 0.016 kg/ha)?
Answer: 8.0

Question: What about the “Postemergence herbicidal rating GLXMA” value ([18]; rate 0.032 kg/ha) of the same compound?
Answer: 8.0

Question: And the “Postemergence herbicidal rating ECHCG” value ([19]; rate 0.016 kg/ha)?
Answer: 4.0

Question: What about the “Postemergence herbicidal rating ECHCG” value ([19]; rate 0.032 kg/ha) of the same compound?
Answer: 6.0

Question: And the “Postemergence herbicidal rating AMBEL” value ([20]; rate 0.016 kg/ha)?
Answer: 9.0

Question: What about the “Postemergence herbicidal rating AMBEL” value ([20]; rate 0.032 kg/ha) of the same compound?
Answer: 9.0

Question: What about the “Postemergence herbicidal rating ALMOY” value ([21]; rate 0.016 kg/ha) of the same compound?
Answer: 2.0

Question: What about the “Postemergence herbicidal rating ALMOY” value ([21]; rate 0.032 kg/ha) of the same compound?
Answer: 2.0

Question: What about the “Postemergence herbicidal rating CHEAL” value ([22]; rate 0.016 kg/ha) of the same compound?
Answer: 7.0

Question: What about the “Postemergence herbicidal rating CHEAL” value ([22]; rate 0.032 kg/ha) of the same compound?
Answer: 9.0

Question: What about the “Postemergence herbicidal rating XANST” value ([23]; rate 0.016 kg/ha) of the same compound?
Answer: 9.0

Question: And the “Postemergence herbicidal rating XANST” value ([23]; rate 0.032 kg/ha)?
Answer: 9.0

— patent US6689773B2, “Uracil substituted phenyl sulfamoyl carboxamides” (BASF Aktiengesellschaft, priority 2000, dated 2004)
